Consider one compound from article PMC12311725, “Identification of Ginsentide-like Peptides from Cacao Beans with Oxidative Stress Protection” (ACS Omega, 2025).

One series deals with T1, HaCaT cell lysate (Homo sapiens, UniProt P22830).
T1 construct: incubated with HaCaT keratinocyte lysates; endogenous in cells; host or cells: HaCaT human keratinocytes
T1 sequence (P22830 55-423): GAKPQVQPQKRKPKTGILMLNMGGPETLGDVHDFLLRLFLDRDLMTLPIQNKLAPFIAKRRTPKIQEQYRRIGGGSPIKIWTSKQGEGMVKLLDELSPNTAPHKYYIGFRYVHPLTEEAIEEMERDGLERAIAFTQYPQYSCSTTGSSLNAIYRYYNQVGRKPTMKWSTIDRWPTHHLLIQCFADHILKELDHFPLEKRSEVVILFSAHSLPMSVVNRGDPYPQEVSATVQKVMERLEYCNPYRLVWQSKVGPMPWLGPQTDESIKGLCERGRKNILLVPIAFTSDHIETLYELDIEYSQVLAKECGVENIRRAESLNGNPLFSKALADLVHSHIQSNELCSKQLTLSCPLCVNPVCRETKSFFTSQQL
Type of series: binding. The settings on record: affinity enrichment mass spectrometry.

A short description of series [1]: Peptide stability assay with trypsin (RP-HPLC). Type of series: in vitro ADME. Conditions: isolated enzyme trypsin, trypsin in 0.1 M ammonium bicarbonate buffer pH 8, 37 °C, peptide 0.1 M [sic], RP-HPLC peak area as % of initial, read-out: structural integrity retained (percentage of peptide remaining) after incubation with trypsin. Here is the method:
(§1) Stability studies were conducted using purified cocotide tC1 (0.1 M) and S-alkylated tC1 (iodoacetamido) under specific buffer conditions. Pepsin stability was assessed by incubating the samples in a mixture of pepsin at a ratio of 50:1 (w/v) in 0.2 M HCl at 37 °C. For trypsin stability, the samples were treated with trypsin in 0.1 M ammonium bicarbonate buffer (pH 8) at 37 °C. Analysis of stability assays involved collecting samples at various time points, which were then analyzed by reversed-phase high-performance liquid chromatography (RP-HPLC) using a linear gradient of mobile phase A (0.05% trifluoroacetic acid in water) and mobile phase B (0.05% trifluoroacetic acid in acetonitrile) on an Aeris Peptide XB-C18 column (Phenomenex). The stability results were expressed as a percentage of the initial concentration and determined by the peak area of the HPLC profile.
(§2) 7 Proteolytic stability assays of cocotide tC1. Cocotide tC1 was incubated with either pepsin or trypsin at 37 °C for up to 6 h. S-alkylated tC1 was used as the control. At different time points, samples of cocotide tC1 and the control were quantified using reversed-phase high pressure liquid chromatography (RP-HPLC). The relative peak areas of the RP-HPLC profiles were used to quantify the percentage of peptides remaining after incubation with pepsin or trypsin.

Series [2] is described as follows: Peptide stability assay with pepsin (RP-HPLC). Type of series: in vitro ADME. Conditions: isolated enzyme pepsin, pepsin 50:1 (w/v) in 0.2 M HCl, 37 °C, peptide 0.1 M [sic], RP-HPLC peak area as % of initial, read-out: structural integrity retained (percentage of peptide remaining) after incubation with pepsin. Here is the method:
as §1, §2

Series [3] can be described thus: Post-translational modification analysis of methionine oxidation (tims-TOF MS/MS). It is filed as physicochemical. Conditions: native peptide, during extraction and purification. Here is the method:
The primary sequences of cocotides from Theobroma cacao aqueous extracts were determined by LC-MS/MS sequencing as described previously. The C18-SPE fractionated Theobroma cacao aqueous extracts were redissolved in 20 mM DTT at 37 °C for 1 h followed by S-alkylation with 200 mM iodoacetamide at 37 °C for 1 h. The mixture was desalted with a C18 Zip-tip and subjected to analysis on a trapped ion mobility spectrometer-time-of-flight tandem mass spectrometer (tims-TOF MS/MS). Data analysis was performed using PEAKS Studio (version 11, Bioinformatics Solutions, Waterloo, ON, Canada) with a precursor ion tolerance of 10 ppm and a fragment ion tolerance of 0.05 Da. Carbamidomethylation at Cys was set as a fixed modification. Deamidation of […], oxidation of Met, and acetylation at Lys and N-term were set as variable modification. Peptide sequencing was performed using PEAKS DB protein identification, which integrates database search of an in-house ginsentide-like peptide library derived from Theobroma cacao transcriptome with de novo sequencing.

A short description of series [4]: Ferric Reducing Antioxidant Power (FRAP) assay. Here is the method: OxiSelect Ferric Reducing Antioxidant Power (FRAP) Assay Kit (Cell Biolabs, USA) was used to measure the antioxidant potential of cocotide tC1. The assay was performed according to the manufacturer’s instructions .
Series [5] in a line: Iron-binding assay (High-Select Fe-NTA spin column, RP-HPLC of flowthroughs). The settings on record: 1 h at room temperature, six water washes, elution. Here is the method: The High-Select Fe-NTA Phosphopeptide Enrichment Kit (Thermo Fisher Scientific, USA) was used to investigate the iron-binding abilities of cocotide tC1. Briefly, cocotide tC1 was suspended in the binding buffer provided. The spin column was first equilibrated by adding 200 μL of the binding buffer and then centrifuged at 1000 × g for 30 s (Thermo Fisher Scientific, USA). The suspended peptide sample was added to the spin column and incubated for 1 h at room temperature. The sample was then centrifuged again at 1000 × g for 30 s, and the flowthrough was collected. The spin column was then washed six times with 100 μL of deionized water. Each time, the sample was centrifuged at 1000 × g for 30 s before collecting the flowthrough. Finally, 100 μL of the elution buffer provided was added, and the sample was centrifuged at 1000 × g for another 30 s before collecting the final eluted flowthrough. All eight flowthroughs were analyzed by using RP-HPLC.

Where a SMILES comes first, the peptide text is derived from it. Bridges are numbered along the chain shown (N, C = ends).

For orientation: amount remaining means the share of the starting amount still present when the sample was taken. Regarding `CC[C@H](C)[C@@H]1NC(=O)CNC(=O)[C@H](CCSC)NC(=O)[C@@H]2CCCN2C(=O)[C@H](Cc2ccc(O)cc2)NC(=O)[C@H](CC(C)C)NC(=O)[C@@H]2CSSC[C@@H]3NC(=O)[C@H](Cc4ccccc4)NC(=O)CNC(=O)CNC(=O)[C@H](C)NC(=O)[C@H](CO)NC(=O)[C@H](CC(C)C)NC(=O)[C@@H](N)CSSC[C@@H]4NC(=O)[C@H](CSSC[C@H](NC1=O)C(=O)N[C@@H](Cc1ccc(O)cc1)C(=O)NCC(=O)N[C@@H](CO)C(=O)NCC(=O)N[C@H](C(=O)O)CSSC[C@H](NC(=O)[C@H](CC(N)=O)NC(=O)CNC4=O)C(=O)NCC(=O)N2)NC(=O)[C@H](CC(=O)O)NC(=O)[C@H](CCSC)NC(=O)[C@@H]1CCCN1C(=O)[C@H](CC(N)=O)NC(=O)[C@H](Cc1ccccc1)NC(=O)[C@H](CCSC)NC3=O` [cocotide tC1] (H-CLSAGGFCMFNPMDCCGNCGCLYPMGICYGSGC-OH; disulfide 1-16, 8-21, 15-28, 19-33; N-terminus and C-terminus assumed), the “ferrochelatase as interacting protein” value at HaCaT cell lysate is reported as “significant interacting partner”. Further, the share remaining at 6 h in series [1] was above 80%. Besides, in series [2], the fraction remaining at 6 h was above 80%. Further, in series [3], the “Met19 and Met25 oxidized to Met(O)” value is listed as below 5%; the “methionine at position 9 converted to Met(O)” value is 27%. Also, the “antioxidant power relative to ascorbic acid” value in series [4] (FRAP value of tC1 versus ascorbic acid (positive control)) is given as 152 fold. The FRAP value in series [4] (OxiSelect FRAP Assay Kit) was 55.1 Fe^2+ μM/μM. Besides, in series [5], the “interaction with Fe-NTA agarose resin” value is “interacts with the Fe-NTA agarose resin”.
